Assay results reported in patent publication US12077608B2, “Stapled H2 pyrin peptides” (H. LEE MOFFITT CANCER CENTER AND RESEARCH INSTITUTE, INC., priority 2018, dated 2024).
Read-outs that look alike come from different tables or passages of the source. Bridge positions count the residues as written; N and C are the ends. Square brackets hold non-standard residues; d marks the D form. Ends that are not written are not given here. Peptide text beside a SMILES is read from it. * marks the point of attachment. FITC = O=C1OC2(c3ccc(O)cc3Oc3cc(O)ccc32)c2ccc(NC(=S)*)cc21; S5 = C=CCCC[C@](C)(N)C(=O)O; Nle = CCCC[C@H](N)C(=O)O; βAla = NCCC(=O)O

Columns and labels:
[1] = Circular dichroism (CD) secondary structure of the peptides; assay type: physicochemical; conditions: aqueous solution; 100 μM peptide in 10 mM potassium phosphate, 100 mM potassium fluoride buffer (pH=7.5)
Procedure: Circular dichroism (CD) was used to determine the secondary structure of the peptides. […] Hydrocarbon stapling promoted α-helix contents with SAH-POP1-4 and SAH-POP1-8 having the highest in aqueous solution.
CD spectra were recorded on an AVIV Model 215 Circular Dichroism Spectrometer. Each spectrum was collected with the wavelength between 190 to 260 nm, 0.5 nm increments, and 0.5 s averaging time using a 1-mm path length cell. The peptide concentration was 100 μM in 10 mM potassium phosphate and 100 mM potassium fluoride buffer (pH=7.5). The studied peptides were completely dissolved in this buffer. CD spectra were initially plotted as wavelength versus millidgree, the default output of the instrument. Once the precise peptide concentration was confirmed, the mean residue ellipticity [Θ] was calculated for the y-axis.

[2] = system: caspase-1 activity in Human THP-1 monocytes; assay: Promega Caspase-Glo 1 Inflammasome Assay (cell-based bioluminescent caspase-1 activity assay); conditions: for inhibited caspase-1 activities: 5 μM inhibitor, PMA-differentiated THP-1, LPS and nigericin stimulated
Description: Promega Caspase-Glo™ 1 Inflammasome Assay. A cell-based bioluminescent caspase-1 activity assay (O'Brien et al., 2017) (Promega Caspase-Glo™ | Inflammasome Assay Kit G9951) was used to evaluate the inhibitory activity of SAH-POP1-4 and SAH-POP1-8 on inhibition of inflammasome formation and caspase-1 activation. Human THP-1 monocytes were differentiated with phorbol 12-myristate 13-acetate (PMA), and treated sequentially with lipopolysaccharide (LPS), a Toll-like receptor 4 (TLR4) agonist, and nigericin, a K^+ ionophore to promote K^+ efflux, resulting in NLRP3- and ASC-dependent caspase-1 activation. The cells were then treated with the inhibitors. […] Experimental Procedure for Promega caspase-Glo™ 1 Inflammasome Assay: THP1 cells were seeded at 5×10^5/ml in RPMI1640 medium with 10% FCS in 96-well plates and cultivated in the presence of 50 nM phorbol-12-myristate-13-acetate (PMA) for 24 h. Then the media was replaced with fresh media and incubated for 24 h. The cells were stimulated with 200 ng/ml LPS in E. coli (Sigma) for 3 h. The media was removed and replaced with serum-free media (OptiMEM) containing DMSO (1:1,000), 5 μM inhibitors for 30 min. Cells were then stimulated with the inflammasome activators: 5 μM nigericin 2 h. Control samples were incubated with medium lacking LPS or nigericin. Then the activity of the active caspase-1 was measured by Caspase-Glo™ 1 inflammasome assay (Promega). A cell-based bioluminescent caspase-1 activity assay (Promega Caspase-Glo™ 1 Inflammasome Assay Kit G9951) was used to evaluate the inhibitory activity of SAH-POP1-17 and SAH-POP1-18 on inhibition of inflammasome formation and caspase-1 activation. Human THP-1 monocytes were differentiated with phorbol 12-myristate 13-acetate (PMA), and treated sequentially with lipopolysaccharide (LPS), a Toll-like receptor 4 (TLR4) agonist, and nigericin, a K^+ ionophore to promote K^+ efflux, resulting in NLRP3- and ASC-dependent caspase-1 activation. The cells were then treated with the inhibitors. […] Experimental Procedure for Promega caspase-Glo™ 1 Inflammasome Assay: THP1 cells were seeded at 5×10^5/ml in RPMI1640 medium with 10% FCS in 96-well plates and cultivated in the presence of 50 nM phorbol-12-myristate-13-acetate (PMA) for 24 h. Then the media was replaced with fresh media and incubated for 24 h. The cells were stimulated with 200 ng/ml LPS in E. coli (Sigma) for 3 h. The media was removed and replaced with serum-free media (OptiMEM) containing DMSO (1:1,000), 5 μM inhibitors for 30 min. Cells were then stimulated with the inflammasome activators: 5 μM nigericin 2 h. Control samples were incubated with medium lacking LPS or nigericin. Then the activity of the active caspase-1 was measured by Caspase-Glo™ 1 inflammasome assay (Promega).

[3] = target: T1, GST-NLRP3^PYD (Homo sapiens, UniProt Q96P20); assay: KD (μM) | GST-NLRP3^PYD
T1 construct: human NLRP3 (residues 3-110) was cloned into a pET-21b vector; made in house; host or cells: E. coli BL21 DE3
Description: Table printed on a drawing sheet, FIG. 10
Head of the field: KD (μM) | GST-NLRP3^PYD
The patent's description of the figure: FIG. 10 is a table showing the results from a fluorescence anisotropy binding assay to determine the accurate binding affinities of stapled peptides fPOP1-H2 (SEQ ID NO: 2), fSAH-POP1-1 (SEQ ID NO: 1), fSAH-POP1-3 (SEQ ID NO: 3), fSAH-POP1-4 (SEQ ID NO: 4), fSAH-POP1-5 (SEQ ID NO: 5), fSAH-POP1-6 (SEQ ID NO: 6), fSAH-POP1-7 (SEQ ID NO: 7), fSAH-POP1-8 (SEQ ID NO: 8), fSAH-POP1-9 (SEQ ID NO: 9), fSAH-POP1-10 (SEQ ID NO: 10), fSAH-POP1-11 (SEQ ID NO: 11), fSAH-POP1-12 (SEQ ID NO: 12), fSAH-POP1-13 (SEQ ID NO: 13), fSAH-POP1-14 (SEQ ID NO: 14), fSAH-POP1-15 (SEQ ID NO: 15), fSAH-POP1-16 (SEQ ID NO: 16), fSAH-POP1-17 (SEQ ID NO: 17), fSAH-POP1-18 (SEQ ID NO: 18), fSAH-POP1-19 (SEQ ID NO: 19), fSAH-POP1-20 (SEQ ID NO: 20), fSAH-POP1-21 (SEQ ID NO: 21), fSAH-POP1-22 (SEQ ID NO: 22), fSAH-POP1-23 (SEQ ID NO: 23), fSAH-POP1-24 (SEQ ID NO: 24), fSAH-POP1-25 (SEQ ID NO: 25), fSAH-POP1-26 (SEQ ID NO: 26), fSAH-POP1-27 (SEQ ID NO: 27), fSAH-POP1-28 (SEQ ID NO: 28), fSAH-POP1-29 (SEQ ID NO: 29), fSAH-POP1-30 (SEQ ID NO: 30), fSAH-POP1-31 (SEQ ID NO: 31).
First copying reader's note: In the structures S5, NL (N with lowered L) and NH2 carry lowered signs, a drawn bracket joins the two S5 residues (staple), and the SEQ ID NO column is printed outside the table frame. […]

[4] = system: ASC speck formation in THP-1 ASC-GFP cells; assay: ASC speck assay, live-cell imaging; assay type: cell-based, Human; conditions: 20 μM peptide; nigericin-activated THP-1 ASC-GFP cells
Procedure: ASC speck is a hallmark of inflammasome formation (Dick et al., 2016; Hoss et al., 2017) and observable by microscopy (Doyle et al., 2012; Stutz et al., 2013). THP-1 ASC-GFP cells stably expressing the ASC-GFP fusion protein (InvivoGen Catalog #: thp-ascgfp) were used to visualize the inhibitory effect of SAH-POP1-4 on ASC specks formation (Fernandes-Alnemri et al., 2007).
Experimental Procedure for ASC Speck Assay. THP1 ASC-GFP cells were seeded at 2×10^6/ml (0.7-1 mL) in RPMI1640 medium with 10% FCS in FluoroDish (FD35-100) and cultivated in the presence of 50 nM phorbol-12-myristate-13-acetate (PMA) for 24 h, then media was replaced by fresh media and incubated for 24 h. Then cells were stimulated with 200 ng/ml LPS from E. coli (sigma) for 3 h. The media was removed and replaced with serum-free medium (OptiMEM) containing DMSO (1:1,000), 20 μM inhibitors for 30 min. […] Control samples were incubated with media lacking LPS or nigericin. Then, ASC specks were tested by confocal microscopy SP8 (Leica Microsystems).
ASC speck is the hallmark of inflammasome formation and observable by microscopy. THP-1 ASC-GFP cells stably expressing the ASC-GFP fusion protein (InvivoGen Catalog #: thp-ascgfp) were used to visualize the inhibitory effect of SAH-POP1-17 on ASC specks formation (Fernandes-Alnemri et al., 2007). […] SAH-POP1-17 at 5 μM inhibited ASC speck formation to 4%, and SAH-POP1-18 at 5 μM inhibited ASC speck formation to 8%.

T1 sequence (Q96P20 3-110): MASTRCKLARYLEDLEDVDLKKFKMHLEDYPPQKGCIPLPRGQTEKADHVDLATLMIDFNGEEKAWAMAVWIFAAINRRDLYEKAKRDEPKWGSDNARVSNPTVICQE

Compound: CCCC[C@H](NC(=O)[C@H](CCCCN)NC(=O)[C@]1(C)CCCC=CCCC[C@](C)(NC(=O)[C@@H](N)CCC(=O)O)C(=O)N[C@@H](CC(C)C)C(=O)N[C@@H](CCCCN)C(=O)N[C@@H](CCCCN)C(=O)N1)C(=O)N[C@@H](CCCCN)C(=O)N[C@@H](CC(C)C)C(=O)NCC(=O)N[C@H](C(=O)N[C@@H](C)C(N)=O)[C@@H](C)O [SAH-POP1-8] (H-E[S5]LKK[S5]K[Nle]KLGTA-NH2; staple 2-6; N-terminus assumed)
- α-helical structure / α-helix contents by circular dichroism [1]: highest
- inhibited caspase-1 activities [2]: 41%
- cell permeability ([2]; THP-1 cells, inferred from caspase-1 assay): cell permeable

Compound: CCCC[C@H](NC(=O)[C@H](CCCCN)NC(=O)[C@H](Cc1ccccc1)NC(=O)[C@H](CCCCN)NC(=O)[C@H](CCCCN)NC(=O)[C@H](CC(C)C)NC(=O)[C@H](CCC(=O)O)NC(=O)[C@H](CCC(=O)O)NC(=O)CCNC(=S)Nc1ccc2c(c1)C(=O)OC21c2ccc(O)cc2Oc2cc(O)ccc21)C(=O)N[C@@H](CCCCN)C(=O)N[C@@H](CC(C)C)C(=O)NCC(=O)N[C@H](C(=O)N[C@H](C(N)=O)C(C)C)[C@@H](C)O [fPOP1-H2] ({FITC-βAla}-EELKKFK[Nle]KLGTV-NH2)
- Kd [3]: 27 ± 2.3 µM

Compound: SAH-POP1-4: hydrocarbon stapled peptide, amino acid sequence ES5LKKS5KMKLGTV (E[S5]LKK[S5]KMKLGTV-NH2; staple 2-6; N-terminus assumed; SMILES CSCC[C@H](NC(=O)[C@H](CCCCN)NC(=O)[C@]1(C)CCCC=CCCC[C@](C)(NC(=O)[C@@H](N)CCC(=O)O)C(=O)N[C@@H](CC(C)C)C(=O)N[C@@H](CCCCN)C(=O)N[C@@H](CCCCN)C(=O)N1)C(=O)N[C@@H](CCCCN)C(=O)N[C@@H](CC(C)C)C(=O)NCC(=O)N[C@H](C(=O)N[C@H](C(N)=O)C(C)C)[C@@H](C)O)
- inhibition of ASC speck formation [4]: completely inhibited
- α-helical structure / α-helix contents by circular dichroism [1]: highest
- cell permeability [2]: cell permeable
- inhibited caspase-1 activities [2]: 43%
